Assay [1] has as its system TG2576 mice. Nature of the assay: UDP N-acetyl glucosamine in brain tissue of TG2576 mice on TAG-supplemented diet, LC-MS/MS (Example 2B). Type of assay: in vivo, mouse. How it is done: After 6 weeks brains were excised and bisected in the sagittal plane. The hemi-brains were stored frozen (−80° C.) then thawed, weighed and homogenized in 10 volumes of MeOH/MeCN/H2O (50%/30%/20%, v/v/v). Homogenates were centrifuged at 5000 rpm for 30 min. The supernatant was passed through 1 kDa MW centrifugal filters then evaporated and resuspended in the HPLC mobile phase. UDP N-acetyl glucosamine was run on a mixed-mode hydrophilic HPLC column (150 mm×4.6 mm id, Primesep N, by SIELC), with guard under a linear gradient of 80% acetonitrile and 10 mM ammonium formate pH 4.3 to 10% MeCN and 10 mM ammonium formate over 9 min, then return to starting conditions over 1 min. UDP N-acetyl glucosamine in brain extracts was quantified against commercial standard UDP N-acetyl glucosamine detected by mass spectrometry (MS-MS) in negative ion mode, scanning for m/z 606 and identification of major collision fragments m/z 385 and 403. UDP levels were corrected for brain mass. The effect of diet was calculated using 1-tailed t-test.

For assay [2], the system named is TG2576 mice. The assay is described as follows: Morris water maze, spatial memory in TG2576 mice (Example 3B). To be noted: TAG diet. It counts as in vivo, mouse. The text has this: The Morris water maze (MWM) has been used to measure spatial memory deficit in TG2576 mice. Mice are placed in a tub of water and containing a submerged platform. The amount of time required for a mouse to swim to the platform is referred to as the maze “escape time”. There are two testing stages in the water maze: 1. VISIBLE STAGE, in which the position of the platform is made visible by a marker pole attached to the platform, and 2. HIDDEN STAGE where the marker pole is removed and the water made opaque by the addition of white paint. Compared to wild type siblings, older TG2576 mice show increased latency to escape time.
The maze consisted of a 715 mm diameter tub filled to a depth of 70 mm. For VISIBLE STAGE testing, mice were placed in the water maze and the time they took to reach the platform was recorded with a stop watch. This testing was carried out 8 times per day for 3 days, during which the platform was moved to various positions around the maze. The walls of the maze were inscribed with 4 distinct shapes that were provided as spatial cues for learning. The HIDDEN STAGE testing was carried out for 7 days, 4 times per day. The position of the platform was fixed, but mice were placed in the maze at different positions for each test.
[…].
As subjects learned to navigate and find the hidden platform, their escape time was reduced. […]

Assay [3] deals with TG2576 mice. The assay is described as follows: Plasma glutamate and glutamine by LC-MS in TG2576 mice on TAG-supplemented diet (Example 1B). To be noted: mouse, in vivo.

“Also recorded” adds a separate entry of the source.

For tetra-acetyl glucosamine [TAG], the “UDP N-acetyl glucosamine in brain” value in assay [1] (TG2576 mice, 0.45% (w/w) TAG diet for 6 weeks, n = 5, p=0.037 vs control diet) is on record as 28.3 ± 2.13 ng/mg brain fwt. In assay [1] (TG2576 mice, 6 weeks of TAG-supplemented diet), the “Increase in levels of UDP N-acetyl glucosamine in brain vs control diet” value was 40%. In addition, the “UDP N-acetyl glucosamine in brain tissue compared to control (in words)” value in assay [1] (mice models of AD fed a diet supplemented with TAG) is given as “increased”. The “Effect on latency to escape time / spatial working memory in Morris water maze (in words)” value in assay [2] (after 7 days) was “decreased; also recorded: significantly improved”. Moreover, the “Mean escape time ± SE” value in assay [2] (water maze after 7 days, n = 8, in s (unit assumed)) was determined as 9.31 ± 0.80. Further, in assay [3], the “Plasma concentration of glutamate” value is listed as 1.05 ± 0.094 RU/ml, the “Plasma concentration of glutamine” value is listed as 6.77 ± 1.05 RU/ml, the “Plasma glutamate level compared to control mice (in words)” value is listed as “significantly lower; also recorded: reduced” and the “Plasma glutamine level compared to control mice (in words)” value is recorded as “trend of increased”.

The values above are taken from patent US12521409B2, “Cognition” (priority 2023, dated 2026).
